Legend:
[1] = tested on: mixed lymphocyte culture reaction (spleen cells of C57BL/6 and BALB/C mice); test: Mixed lymphocyte culture reaction (MLR); assay type: cell-based, mouse (C57BL/6 stimulator, BALB/C responder); details: 42 hours; for activity at 1 µg/mL / activity at 0.1 µg/mL: Mus musculus, Lymphocyte, read-out: MLR activating rate (%); for MLR activating rate (%): 2520 min
Experimental: ii) Mixed lymphocyte culture reaction (MLR) of the compounds of the present invention
Spleen cells were prepared from C57BL/6 mice and treated with 50 μg/ml of mitomycin C for 30 minutes. The treated cells were used as stimulator cells, and the spleen cells of BALB/C mice as responder cells. 2×10^6 cells/ml of the both spleen cells were suspended in 10% FCS RPMI1640 as a culture medium. The above-described cells (50 μl/well) and a sample (10 μl/well) were added into wells of a round-bottomed 96 well plate, and cultured under the condition of 5% CO2 at 37° C. for 42 hours. 0.5 μCi/well of ^3 H-thymidine (^3 H-TdR) was added. After 8 hours, the cells were harvested, and the amount of uptaken ^3 H-TdR was measured by a liquid scintillation counter to calculate the ratio (%) of the uptake of ^3 H-TdR in the sample group to that in the vehicle group as the MLR activating rate.

[2] = tested on: mouse splenic lymphocyte; test: In vitro mouse splenic lymphocyte-proliferation-stimulating effect (3H-TdR uptake); assay type: cell-based, mouse (BDF1 female); details: 2 days; for activity at 1 µg/mL / activity at 0.1 µg/mL / activity at 0.01 µg/mL / activity at 0.001 µg/mL: Mus musculus, Splenic lymphocyte, 48 h, read-out: Uptake of 3H-TdR (% of control), splenic lymphocytes; for activity at 0.1 µg/mL: 10^-1 μg/ml; for activity at 0.01 µg/mL: 10^-2 μg/ml; for Uptake of 3H-TdR (% of control), splenic lymphocytes: 2880 min
Experimental: i) In vitro mouse splenic lymphocyte growth promoting effects of the present compounds
Experiment was performed with BDF1 female mice (6 weeks old) purchased from NIPPON SLC K.K. Spleens were removed from mice, and spleen cells were brayed with slide glasses and hemolized with NH4 Cl. 2×10^6cells/ml of the spleen cells which had been hemolized were suspended in 10% FCS RPMI 1640. The cell suspension (100 μl/well) and a vehicle or sample (10 μl/well) which was prepared so as to have a final level shown in Table 3 were added into wells of a round-bottomed 96 well plate, and cultured under the condition of 5% CO2 at 37° C. for 2 days. 0.5 μCi/well of ^3 H-thymidine (^3 H-TdR) was added. After 6 hours, the cells were harvested, and the amount of ^3 H-TdR uptaken into nucleus was measured by a liquid scintillation counter. The ratio (%) of the uptake of ^3 H-TdR in the sample group to that in the vehicle group was calculated and used as the in vitro mouse splenic lymphocyte-proliferation-stimulating rate.

[3] = tested on: B16 mouse melanoma cells; test: Tumor growth inhibition in mice subcutaneously inoculated with B16 mouse melanoma cells; assay type: in vivo, mouse (BDF1 female); details: 0.1 mg/kg i.v. days 1, 5, 9; maximum during 20 days
Experimental: ii) Anti-tumor effect of the compound according to the present invention on mice subcutaneously inoculated with B16 mouse melanoma cells.
Experiment was performed with BDF1 female mice (6 weeks) purchased from NIPPON SLC K.K., which were divided into groups consisting of 6 animals. […]. The subcutaneous tumor volumes [(length×width×height)/2] were measured on days 8, 12, 16 and 20 after implantation to determine the tumor growth inhibiting rate (TGIR) of each sample. TGIR was calculated from the following formula: […]
wherein C: tumor volume in the control group, and
T: tumor volume in the sample adminitered groups.
In this connection, Compounds 1-6 and 7-9 were tested in the same time, respectively.

[4] = tested on: P388 mouse leukemia cells; test: Life-span-prolonging (anti-tumor) effect on mice subcutaneously inoculated with P388 mouse leukemia cells; assay type: in vivo, mouse (CDF1 female); details: 0.1 mg/kg i.v. on days 1, 5 and 9; for Survival days ave. ± s. d.: all marked ** (p < 0.01); for response vs control in vivo at 0.1 mg/kg: Mus musculus, P388, iv, read-out: T/C (%)
Experimental: i) Anti-tumor effect of the compound of the present invention on mice subcutaneously inoculated with P388 mouse leukemia cells.
Experiment was performed with CDF1 female mice (6 weeks) purchased from NIPPON SLC K.K., which were divided into groups consisting of 5 animals. […]. In this connection, lentinan and picibanil were administered intravenously on days 1, 3, 5, 7 and 9 after implantation, and sizofilan was administered subcutaneously on days 1 through 9. Statistical analysis was performed according to the Mann-Whiteney test.

[5] = tested on: mouse bone marrow cells; test: In vitro mouse bone marrow cell-proliferation-promoting effect (3H-TdR uptake); assay type: cell-based, mouse (BDF1 female); details: 4 days; for activity at 0.1 µg/mL / activity at 0.01 µg/mL: Mus musculus, Bone marrow cell, 96 h, read-out: Uptake of 3H-TdR (% of control), bone marrow cells; for Uptake of 3H-TdR (% of control), bone marrow cells: 5760 min
Experimental: In vitro mouse bone marrow cell-proliferation-promoting effect of the present compound
Experiment was performed with BDF1 female mice (6 weeks old) purchased from NIPPON SLC K.K. Bone marrow cells were removed from the femoral bone of mice by the conventional manner, floated on 10% FCS RPMI 1640, layered over Lympholite M, and centrifuged to give a monocyte fraction. 1×10^6 cells/ml of the monocyte fraction was suspended in 10% FCS RPMI 1640. The cell suspension (100 μl/well) and a vehicle or sample (10 μl/well) which was prepared so as to have a final level shown in Table 2 were added into a wells of round-bottomed 96 well plate, and cultured under the condition of 5% CO2 at 37° C. for 4 days. 0.5 μCi/well of ^3 H-thymidine (^3 H-TdR) was added. After 6 hours, the cells were harvested, and the amount of ^3 H-TdR uptaken into nucleus was measured by a liquid scintillation counter. The ratio of the uptake of ^3 H-TdR in the sample group to that in the vehicle group was calculated and used as the activation rate for promoting in vitro mouse bone marrow cell growth.

[6] = tested on: lethally irradiated mice; test: Radioprotective effect: life-span prolongation of lethally irradiated mice; assay type: in vivo, mouse (BDF1 female); details: 0.1 mg/kg i.v. days 0, 4, 8, 9 Gy X-ray, groups of 10
Experimental: Life-span-prolonging effects of the present compounds on lethally irradiated mice.
Experiment was performed with BDF1 female mice (6 weeks old) purchased from NIPPON SLC K.K., which were divided into groups consisting of 10 animals. Mice were irradiated generally with 9 Gy of X-ray with an X-ray generating apparatus, Hitachi, MBR-1520R (radiation day: day 0). Samples at a dose of 0.1 mg/kg were administered into tail vein on days 0, 4 and 8 in order to observe the mortality of the animals for 40 days.
In the table, two experiments are separated by the broken line.

| Structure (SMILES) | activity at 1 µg/mL ([1]; 1 × 10^0 μg/ml) [%] | activity at 0.1 µg/mL ([1]; 1 × 10^-1 μg/ml) [%] | activity at 1 µg/mL ([2]; 10^0 μg/ml) [%] | activity at 0.1 µg/mL [2] [%] | activity at 0.01 µg/mL [2] [%] | activity at 0.001 µg/mL ([2]; 10^-3 μg/ml) [%] | Maximum tumor growth inhibiting rate, TGIR (%) [3] [%] | Survival days ave. ± s. d. [4] [days] | response vs control in vivo at 0.1 mg/kg ([4]; survival vs vehicle) [%] | activity at 0.1 µg/mL ([5]; 10^-1 μg/ml) [%] | activity at 0.01 µg/mL ([5]; 10^-2 μg/ml) [%] | Number of surviving mice ([6]; day 10) [mice] | Number of surviving mice ([6]; day 15) [mice] | Number of surviving mice ([6]; day 20) [mice] | Number of surviving mice ([6]; day 25) [mice] | Number of surviving mice ([6]; day 30) [mice] | Number of surviving mice ([6]; day 35) [mice] | Number of surviving mice ([6]; day 40) [mice] | also measured |
| --- | --- | --- | --- | --- | --- | --- | --- | --- | --- | --- | --- | --- | --- | --- | --- | --- | --- | --- | --- |
| CCCCCCCCCCCCCCCCCCCCCC[C@@H](O)C(=O)N[C@@H](CO[C@H]1O[C@H](CO)[C@H](O)[C@H](O[C@H]2O[C@H](CO)[C@H](O)[C@H](O)[C@H]2NC(C)=O)[C@H]1O[C@H]1O[C@H](CO)[C@@H](O)[C@H](O)[C@H]1O)[C@H](O)[C@H](O)CCCCCCCCCCCCC [Compound 2, O-(N-acetyl-2-amino-2-deoxy-α-D-galactopyranosyl)-(1→3)-O-[α-D-glucopyranosyl-(1→2)]-O-α-D-galactopyranosyl-(1→1)-(2S,3S,4R)-2-amino-N-[(R)-2-hydroxytetracosanoyl]-1,3,4-heptadecanetriol] | 213 | 158 | 890 | 735 | 508 | 270 | 82.6 | 15.8 ± 0.5 | 123 | 268 | 276 | 10 | 10 | 10 | 9 | 9 | 9 | 9 |  |
| CCCCCCCCCCCCCCCCCCCCCC[C@@H](O)C(=O)N[C@@H](CO[C@H]1O[C@H](CO)[C@H](O)[C@H](O[C@H]2O[C@H](CO)[C@H](O)[C@H](O)[C@H]2NC(C)=O)[C@H]1O[C@H]1O[C@H](CO)[C@@H](O)[C@H](O)[C@H]1O)[C@H](O)[C@H](O)CCCCCCCCCCCC [Compound 1, O-(N-acetyl-2-amino-2-deoxy-α-D-galactopyranosyl)-(1→3)-O-[α-D-glucopyranosyl-(1→2)]-O-α-D-galactopyranosyl-(1→1)-(2S,3S,4R)-2-amino-N-[(R)-2-hydroxytetracosanoyl]-1,3,4-hexadecanetriol] | 222 | 142 | 843 | 738 | 332 | 184 |  | 15.3 ± 0.8 | 120 | 211 | 133 | 10 | 9 | 7 | 6 | 6 | 6 | 6 |  |
| CCCCCCCCCCCCCCCCCCCCCC[C@@H](O)C(=O)N[C@@H](CO[C@H]1O[C@H](CO)[C@H](O)[C@H](O[C@H]2O[C@H](CO)[C@H](O)[C@H](O)[C@H]2NC(C)=O)[C@H]1O[C@H]1O[C@H](CO)[C@@H](O)[C@H](O)[C@H]1O)[C@H](O)[C@H](O)CCCCCCCCCCCCCC [Compound 8, O-(N-acetyl-2-amino-2-deoxy-α-D-galactopyranosyl)-(1→3)-O-[α-D-glucopyranosyl-(1→2)]-O-α-D-galactopyranosyl-(1→1)-(2S,3S,4R)-2-amino-N-[(R)-2-hydroxytetracosanoyl]-1,3,4-octadecanetriol] |  |  |  |  |  |  | 78.4 | 16.0 ± 0.7 |  |  |  |  |  |  |  |  |  |  | MLR activating rate (%) ([1]; 1 × 10^0 μg/ml): 286%; MLR activating rate (%) ([1]; 1 × 10^-1 μg/ml): 232%; Uptake of 3H-TdR (% of control), splenic lymphocytes ([2]; 10^0 μg/ml): 997 % of control; Uptake of 3H-TdR (% of control), splenic lymphocytes ([2]; 10^-3 μg/ml): 609 % of control; T/C (%) ([4]; survival vs vehicle): 125%; Uptake of 3H-TdR (% of control), bone marrow cells ([5]; 10^-1 μg/ml): 240 % of control; Uptake of 3H-TdR (% of control), bone marrow cells ([5]; 10^-2 μg/ml): 167 % of control |
| CCCCCCCCCCCCCCCCCCCC[C@@H](O)C(=O)N[C@@H](CO[C@H]1O[C@H](CO)[C@H](O)[C@H](O[C@@H]2O[C@@H]([C@H](O)CO)[C@H](O)[C@H]2O)[C@H]1O)[C@H](O)[C@H](O)CCCCCCCCCCCC [Compound 10, O-β-D-galactofuranosyl-(1→3)-O-α-D-galactopyranosyl-(1→1)-(2S,3S,4R)-2-amino-N-[(R)-2-hydroxydocosanoyl]-1,3,4-hexadecanetriol] | 174 | 132 | 509 | 375 | 277 | 102 |  | 13.8 ± 0.4 | 108 | 286 | 147 |  |  |  |  |  |  |  |  |

Source: patent US5780441A, “Sphingoglycolipid compounds and therapeutic uses thereof” (Kirin Beer Kabushiki Kaisha, priority 1993, dated 1998)
